Measured values as given in PMC5216877, “Exploring conformational equilibria of a heterodimeric ABC transporter” (eLife, 2017).
Where two headings read alike, the source gives them in different places. Marks after values point to notes of the source that are not given here.

What was measured:
TM287/288 [1] = biological target: T1, TM287/288 (Thermotoga maritima, UniProt Q9WYC3+Q9WYC4, C28S/C496S/C519S/C558S/C73S); experiment: ATPase activity of detergent-purified wildtype TM287/288 (molybdate/malachite green phosphate detection); assay type: biochemical; settings: for Km: read-out: Km for ATP
TM287/288 [2] = biological target: T1, TM287/288; experiment: Inhibition of ATPase activity of TM287/288 by vanadate and nucleotides; assay type: biochemical; settings: for IC50: 500 µM ATP, read-out: IC50; for Ki: calculated from IC50 and Km, read-out: Ki
Procedure: Nucleotide binding and hydrolysis follow a complex mechanism in heterodimeric ABC exporters, due to the existence of a degenerate and a consensus site in the NBDs. […] Using the relation IC50=Ki(1+[S]/Km), Ki values for the respective nucleotides were determined (Table 2). […] It is well established that ATPγS is slowly hydrolyzed by ATPases, as for example the F1Fo-ATPase ([Turina and Capaldi, 1994]). […] It is reasonable to assume that TM287/288 is as well capable of slow ATPγS hydrolysis. In addition, we tested whether TM287/288 hydrolyzes AMP-PNP. In contrast to ATPγS, hydrolysis of AMP-PNP releases Pi, which can be detected by the molybdate/malachite green method.
(§1) in which f corresponds to the ATPase activity at the respective inhibitor concentration divided by the ATPase activity in the absence of inhibitor normalized to 100%, y0 corresponds to the residual activity at infinite inhibitor concentration, a corresponds to the maximal degree of inhibition (a+y0=100%) and x corresponds to the inhibitor concentration.
(§2) Ki values were calculated according to the formula Ki=IC50/(1+[S]/Km)
(§3) IC50 and Km values were obtained from data fitting as outlined above.
(§4) Standard errors for the Ki values were calculated by error propagation: σKi = (Km/Km+[S])^2 σIC502+ ([S]IC50/(Km+[S])^2)^2 σKm2
(§5) in which the σIC50 and σKm are standard errors obtained from data fitting in SigmaPlot and σKi is the standard error for Ki .

BmrCD [3] = biological target: T2, BmrCD (Bacillus subtilis, UniProt O07549+O07550, C154A/C256A/C351A); experiment: Inhibition of ATPase activity of BmrCD by nucleotide analogs; assay type: biochemical; settings: BmrCD, 25°C
T2 construct: made in house; host or cells: E. coli MC1061
Procedure: as §1, §2, §3, §4, §5

TM287/288 [4] = experiment: DEER two-Gaussian fit of IF/OF populations, wildtype TM287/288; set-up: species or system Thermotoga maritima; settings: estimated errors 10%
Procedure: (§6) All nucleotides and nucleotide analogs used in this study were added at saturating conditions well above their Ki values (Table 2). […] Therefore, the IF/OF fractions detected in the sample reflect the average life time that the nucleotide-bound transporter spends in either conformation. To rank the nucleotides in terms of their ability to support the transition to the OF conformation, we used three representative pairs in the wildtype transporter and the E-to-Q mutant: one in the extracellular region (50^TM287/271^TM287), one in the intracellular region (131^TM288/248^TM288) of the TMDs, and one in the NBDs (460^TM287/363^TM288) for which the distance peaks corresponding to the two states were distinguishable. A two-Gaussian fit of the DEER traces was performed to obtain the area of the corresponding IF and OF distance peaks (Figure 5—source data 1). The rank of nucleotides with respect to increasing fractions of the OF populations (Figure 5A) was: ADP-Mg ≈ AMP-PNP-Mg < ATP-EDTA < ATPγS-Mg < ATP-Mg < ATP-Vi-Mg. The order is similar for the wildtype and E-to-Q mutant transporter. However, the OF state is in general more populated in the E-to-Q mutant, which is best explained by an alteration of the energy profile caused by the mutation. This notion is best appreciated for ATP-EDTA and ATP-Mg, which could trigger an almost complete switch in the molecular ensemble of the E-to-Q mutant (Figure 5B).
(§7) The labeling efficiency of the double cysteine mutants of the transporters solubilized in detergent was measured at 25°C using an X-band Miniscope 400 EPR spectrometer (Magnettech by Freiberg Instrument). Samples were loaded into glass capillaries with the inner diameter of 0.9 mm and spectra were measured with 14 mT field sweep, 0.15 mT modulation amplitude, 2.5 mW microwave power. The calculated spin labeling efficiencies of the twelve mutants ranged between 70–90% (the second integral of the EPR spectra was calculated with the software available at spintoolbox.com). The high degree of labeling is correlated with the 0.3–0.4 modulation depths of all Q-band DEER traces presented. For DEER measurements, 10% v/v D8- glycerol was added prior to snap freezing. The range of final protein concentrations was 12 to 41 µM. 40 µL of sample were loaded in quartz tubes with 3 mm outer diameter. If not stated differently, samples were incubated at 25°C for 10 min (TM287/288 and MsbA) or 15 min (BmrCD) and snap frozen in liquid nitrogen. To study the effect of high physiological temperatures on the frozen dynamics of the transporter, samples were loaded in the quartz tubes, incubated for 3 min at 80°C on a heat block and snap frozen in a mixture of isopentane and liquid nitrogen to minimize the freezing time. […] The nucleotide analogs AMP-PNP-Mg and ATPγS-Mg (2.5 mM) were also prepared in the presence of 2.5 mM MgCl2. In case of ADP-Mg, 2.5 mM ADP and 2.5 mM MgCl2 were added.
(§8) Double electron-electron resonance (DEER) measurements were performed at 50 K on a Bruker ELEXSYS E580Q-AWG (arbitrary wave generator) dedicated pulse Q-band spectrometer equipped with a 150 W TWT amplifier. A 4-pulse DEER sequence with rectangular, non-selective observer and pump pulses of 14 or 16 ns length (depending on the available B1 at the sample) with 100 MHz frequency separation was used ([Polyhach et al., 2012]). Due to the coherent nature of the AWG generated pulses, a four-step phase cycling (0 – π/2 - π – 3/2π) of the pump π pulse was performed to remove unwanted effects of running echoes from the DEER trace. The evaluation of the DEER data was performed using DeerAnalysis2015 ([Jeschke et al., 2006]). The background of the primary DEER traces was corrected using stretched exponential functions with homogeneous dimensions of 1.5 to 3 for different samples. A model-free Tikhonov regularization was used to extract distance distributions from the background corrected form factors. […]

TM287/288 E517Q = experiment: DEER two-Gaussian fit of IF/OF populations, E-to-Q mutant of TM287/288; set-up: species or system Thermotoga maritima; settings: estimated errors 10%
Procedure: as §6, §7, §8

MsbA [5] = tested on: MsbA; set-up: method as in Moeller et al., 2015; settings: single particle EM; ref Moeller et al., 2015; cited from earlier work
TM287/288_E517Q^TM288 = experiment: Residual ATPase activity of E-to-Q mutant of TM287/288 in detergent; assay type: biochemical, Thermotoga maritima; settings: E-to-Q mutant of TM287/288, 25°C
Procedure: (§9) Incubation with buffers containing the same nucleotide concentration without protein served for background subtraction in these assays.

BmrCD [6] = biological target: T2, BmrCD; experiment: ATPase activity of detergent-purified wildtype BmrCD; assay type: biochemical; settings: 25°C
BmrCD_E592Q^BmrD = biological target: T3, BmrCD_E592Q^BmrD (Bacillus subtilis, UniProt O07549+O07550, C154A/C256A/C351A/E592Q); experiment: Residual ATPase activity of E-to-Q mutant of BmrCD in detergent; assay type: biochemical; settings: 25°C
T3 construct: made in house; host or cells: E. coli MC1061
Procedure: as §9

MsbA [7] = experiment: ATPase activity of detergent-purified MsbA; settings: ATP-Mg, 30°C
Spin-labeled TM287/288 = experiment: ATPase activity of spin-labeled TM287/288 mutants in detergent; settings: 50°C, relative to internal wildtype control
[8] = wildtype TM287/288, AMP-PNP-Mg as nucleotide, 25°C [sic], detergent
[9] = spin-labeled pair 50^TM287-271^TM287 WT
[10] = spin-labeled pair 131^TM288-248^TM288 WT
[11] = spin-labeled pair 460^TM287-363^TM288 WT
[12] = spin-labeled pair 50^TM287-271^TM287 E517Q
[13] = spin-labeled pair 131^TM288-248^TM288 E517Q
[14] = spin-labeled pair 460^TM287-363^TM288 E517Q
[15] = wildtype TM287/288, ATP-Mg, 25°C, detergent
[16] = wildtype TM287/288, ATP-Mg, 50°C, detergent
[17] = wildtype BmrCD, ATP-Mg, detergent
[18] = BmrCD E592Q^BmrD, ATP-Mg, detergent

T2 sequence (O07550 whole entry): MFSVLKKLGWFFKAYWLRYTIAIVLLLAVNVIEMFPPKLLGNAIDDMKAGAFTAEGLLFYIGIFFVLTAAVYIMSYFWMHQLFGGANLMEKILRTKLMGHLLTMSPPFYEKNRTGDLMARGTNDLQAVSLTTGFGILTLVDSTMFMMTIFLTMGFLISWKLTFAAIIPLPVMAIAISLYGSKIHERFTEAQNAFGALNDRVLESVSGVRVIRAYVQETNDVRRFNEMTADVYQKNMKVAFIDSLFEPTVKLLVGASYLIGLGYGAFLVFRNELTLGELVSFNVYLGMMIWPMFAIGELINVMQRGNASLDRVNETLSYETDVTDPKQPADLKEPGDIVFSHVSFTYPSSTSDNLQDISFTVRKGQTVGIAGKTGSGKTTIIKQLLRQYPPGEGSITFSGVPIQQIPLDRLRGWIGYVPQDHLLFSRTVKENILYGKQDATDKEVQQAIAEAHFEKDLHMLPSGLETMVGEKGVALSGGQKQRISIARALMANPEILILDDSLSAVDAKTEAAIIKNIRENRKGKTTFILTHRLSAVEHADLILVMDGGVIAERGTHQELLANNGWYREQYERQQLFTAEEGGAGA
T2 sequence (O07549 whole entry C154A/C256A/C351A): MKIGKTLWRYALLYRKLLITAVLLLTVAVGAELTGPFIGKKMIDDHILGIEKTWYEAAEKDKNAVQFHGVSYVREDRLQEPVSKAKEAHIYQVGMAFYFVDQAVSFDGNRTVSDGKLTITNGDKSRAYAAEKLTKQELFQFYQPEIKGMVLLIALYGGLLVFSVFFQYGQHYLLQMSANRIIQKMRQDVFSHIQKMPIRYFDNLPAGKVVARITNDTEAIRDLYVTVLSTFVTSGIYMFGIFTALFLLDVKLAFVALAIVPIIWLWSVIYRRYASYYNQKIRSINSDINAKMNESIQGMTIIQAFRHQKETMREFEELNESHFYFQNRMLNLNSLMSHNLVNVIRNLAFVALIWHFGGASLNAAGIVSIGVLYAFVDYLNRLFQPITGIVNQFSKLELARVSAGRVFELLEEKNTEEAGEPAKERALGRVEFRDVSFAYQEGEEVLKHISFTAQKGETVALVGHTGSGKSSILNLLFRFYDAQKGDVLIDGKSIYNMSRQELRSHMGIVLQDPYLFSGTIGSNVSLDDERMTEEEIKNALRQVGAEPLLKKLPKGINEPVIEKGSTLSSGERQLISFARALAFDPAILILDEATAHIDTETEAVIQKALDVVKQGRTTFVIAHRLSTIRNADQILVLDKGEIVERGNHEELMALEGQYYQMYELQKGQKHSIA
T3 sequence (O07550 whole entry): as the sequence (O07550 whole entry) above
T3 sequence (O07549 whole entry C154A/C256A/C351A/E592Q): as the sequence (O07549 whole entry C154A/C256A/C351A) above, with E592Q counted along it

In the case of `Nc1ncnc2c1ncn2[C@@H]1O[C@H](COP(=O)(O)OP(=O)(O)NP(=O)(O)O)[C@@H](O)[C@H]1O` [AMP-PNP], the “cleavage of AMP-PNP (sensitivity of assay)” value (TM287/288 [1]; wildtype TM287/288, AMP-PNP as nucleotide) is reported as less than 0.01 Pi min^−1, the “ATPase activity (hydrolysis of AMP-PNP)” value (TM287/288 [1]; [8]) is reported as less than 0.1 nmol Pi/min/mg protein and the “ATPase activity, % of wildtype (hydrolysis of AMP-PNP)” value (TM287/288 [1]; [8]) is reported as less than 0.005%. The “Turnover per transporter (hydrolysis of AMP-PNP)” value (TM287/288 [1]; [8]) was less than 0.01 min⁻¹, the IC50 (TM287/288 [2]; TM287/288, 25°C) was 179 ± 75 µM and the Ki (TM287/288 [2]; TM287/288, 25°C) was 1.17 ± 0.51 µM. For the same compound, the IC50 (TM287/288 [2]; TM287/288, 50°C) was 16.1 ± 1.6 µM, the Ki (TM287/288 [2]; TM287/288, 50°C) was 0.246 ± 0.042 µM and the IC50 (BmrCD [3]; 2500 µM ATP, read-out: IC50) was 174 ± 24 µM. The Ki (BmrCD [3]; calculated from IC50 and Km, read-out: Ki) was 21 ± 3.2 µM, the IF frac (TM287/288 [4]; [9]) was 85.4% and the OF frac (TM287/288 [4]; [9]) was 14.6%. The IF frac (TM287/288 [4]; [10]) was 100%, the OF frac (TM287/288 [4]; [10]) was 0% and the IF frac (TM287/288 [4]; [11]) was 90.7%. It also gave an OF frac (TM287/288 [4]; [11]) of 9.3%, an IF frac (TM287/288 E517Q; [12]) of 64.9% and an OF frac (TM287/288 E517Q; [12]) of 35.1%. For the same compound, the IF frac (TM287/288 E517Q; [13]) was 100%, the OF frac (TM287/288 E517Q; [13]) was 0% and the IF frac (TM287/288 E517Q; [14]) was 65.8%. The OF frac (TM287/288 E517Q; [14]) was 34.2% and the “fraction of outward-facing MsbA” value (MsbA [5]) was 41%.
In the case of `Nc1ncnc2c1ncn2[C@@H]1O[C@H](COP(=O)(O)OP(=O)(O)OP(=O)(O)O)[C@@H](O)[C@H]1O` [ATP], the Km (TM287/288 [1]; TM287/288, 25°C) is reported as 3.27 ± 0.42 µM, the Km (TM287/288 [1]; TM287/288, 50°C) is reported as 7.78 ± 1.1 µM and the turnover rate (TM287/288 [1]; wildtype TM287/288, ATP-Mg, 25°C) is reported as 11 ATP min^−1. For the same compound, the ATPase activity (TM287/288 [1]; [15]) was 86.1 ± 2.5 nmol Pi/min/mg protein, the Turnover per transporter (TM287/288 [1]; [15]) was 11.4 min⁻¹ and the ATPase activity (TM287/288 [1]; [16]) was 2141 ± 67 nmol Pi/min/mg protein. For the same compound, the Turnover per transporter (TM287/288 [1]; [16]) was 284 min⁻¹, the ATPase turnover rate (TM287/288_E517Q^TM288) was 0.022 ATP min^−1 and the Km (BmrCD [6]; read-out: Km for ATP, BmrCD) was 343 ± 24 µM. It also gave an ATPase activity (BmrCD [6]; [17]) of 22.9 ± 0.5 nmol Pi/min/mg protein, a Turnover per transporter (BmrCD [6]; [17]) of 3.24 min⁻¹ and an ATPase activity (BmrCD_E592Q^BmrD; [18]) of 0.633 ± 0.053 nmol Pi/min/mg protein. The “ATPase activity, % of wildtype” value (BmrCD_E592Q^BmrD; [18]) was 2.76%, the Turnover per transporter (BmrCD_E592Q^BmrD; [18]) was 0.0896 min⁻¹ and the turnover rate (BmrCD_E592Q^BmrD; BmrCD carrying the E-to-Q mutation) was 0.09 ATP min^−1. For the same compound, the IF frac (TM287/288 [4]; [9]) was 36.7%, the OF frac (TM287/288 [4]; [9]) was 63.3% and the IF frac (TM287/288 [4]; [10]) was 56.8%. The OF frac (TM287/288 [4]; [10]) was 43.2%, the IF frac (TM287/288 [4]; [11]) was 25.7% and the OF frac (TM287/288 [4]; [11]) was 74.3%. The IF frac (TM287/288 E517Q; [12]) was 5.79%, the OF frac (TM287/288 E517Q; [12]) was 94.21% and the IF frac (TM287/288 E517Q; [13]) was 24.9%. The OF frac (TM287/288 E517Q; [13]) was 75.1%, the IF frac (TM287/288 E517Q; [14]) was 13% and the OF frac (TM287/288 E517Q; [14]) was 87%. The “ATPase activity, % of wildtype” value (MsbA [7]; MsbA 561^MsbA) was 90.4%, the Turnover per transporter (MsbA [7]; MsbA 561^MsbA) was 16.6 min⁻¹ and the ATPase activity (MsbA [7]; wildtype MsbA) was 135 ± 9 nmol Pi/min/mg protein. For the same compound, the Turnover per transporter (MsbA [7]; wildtype MsbA) was 18.4 min⁻¹, the “ATPase activity, % of wildtype” value (Spin-labeled TM287/288; spin-labeled 131^TM288/248^TM288, ATP-Mg) was 156* % and the “ATPase activity, % of wildtype” value (Spin-labeled TM287/288; spin-labeled 150^TM287/295^TM288, ATP-Mg) was 112* %. The “ATPase activity, % of wildtype” value (Spin-labeled TM287/288; spin-labeled 231^TM287/304^TM287, ATP-Mg) was 146* %, the “ATPase activity, % of wildtype” value (Spin-labeled TM287/288; spin-labeled 350^TM287/475^TM288, ATP-Mg) was 193* % and the “ATPase activity, % of wildtype” value (Spin-labeled TM287/288; spin-labeled 460^TM287/363^TM288, ATP-Mg) was 212* %.
